Data taken from ChEMBL document CHEMBL5365457, “Selective HDAC3 Inhibitors with Potent In Vivo Antitumor Efficacy against Triple-Negative Breast Cancer” (J Med Chem, 2023).

Columns and labels:
4T1 [1] = assay: Antitumor activity against mouse 4T1 cells implanted in BALB/c mouse assessed as tumor growth inhibition at 15 mg/kg, ip measured on day 7; assay type: functional; details: 4T1, 168 h, time 7 day, read-out: TGI
[2] = Toxicity in BALB/c mouse implanted with mouse 4T1 cells assessed as effect on cell size in spleen at 5 to 15 mg/kg, ip measured after 21 days by H and E staining based assay; assay type: organism-based; details: in vivo, 504 h, dose 5-15 mg/kg, time 21 day
4T1 [3] = assay: Antitumor activity against mouse 4T1 cells implanted in BALB/c mouse assessed as reduction in tumor volume at 5 mg/kg, ip administered 5 times a week for 21 days (reference value: 52.05+/-13.23 mm3); assay type: functional; details: time 21 day

Q: What does the source list for `CCCNNC(=O)c1cnc(NCc2ccc(OC)cc2)cn1`?
A: inhibition in vivo at 15 mg/kg (4T1 [1]): 84.9%; Activity [2]: Non-Toxic; Activity (4T1 [3]): 185.23 mm3
